Measurements taken from patent publication US20120183493A1, “NOVEL POLYMERS” (PharmaPatents Global Ltd., priority 2009, published 2012).
Like-named read-outs stand apart in the source and are kept apart here. Blank lines part the entries; values can stand above or below the compound they belong to.

Experiments:
[1] = test system: fibroblasts from human hypertrophic scars; settings: cited from earlier work; for proliferation of fibroblasts derived from hypertrophic scars: compound alone; for effect on AT II-stimulated increase in DNA synthesis: cultured fibroblasts, stimulation with AT II
[2] = Solubility of the purified solid in organic solvents; type: physicochemical
Experimental: (§1) 4 g of captopril in 15 ml of toluene with 0.5 g of Novozyme lipase B from Candida antartica was stirred in a 100 ml round bottom flask fitted with a drying tube (containing 3 Å molecular sieves and indicator silica gel) for 48 hours at 110° C. using a hotplate and magnetic stirrer. 50 ml of THF was then added and the enzyme was removed by filtration.
as §1, with “captopril lactone” for “captopril”

[3] = test system: guinea pig gingival fibroblast cells; settings: cited from earlier work
hypertrophied scars = settings: topical application, animal model of pathologic scarring; cited from earlier work
keloid scar = settings: cited from earlier work
[4] = test system: experimental hepatic fibrosis; settings: rats; cited from earlier work
dermal healing = settings: by reducing fibrosis and improving collagen remodelling; cited from earlier work
[5] = phenytoin- or nifedipine-induced gingival fibroblasts

Compound: Cc1cc(Cn2cnc3c2C[C@@H](C(=O)O)N(C(=O)C(c2ccccc2)c2ccccc2)C3)ccc1N(C)C [PD123319]
proliferation of fibroblasts derived from hypertrophic scars [1]: did not influence
effect on AT II-stimulated increase in DNA synthesis [1]: augmented

solubility in THF [2]: freely soluble
solubility in chloroform [2]: freely soluble
solubility in methanol [2]: freely soluble
Compound: C[C@@H]1CSC(=O)[C@@H]2CCCN2C1=O [captopril lactone]

solubility in THF [2]: freely soluble
solubility in chloroform [2]: freely soluble
solubility in methanol [2]: freely soluble
Compound: C[C@H](CS)C(=O)N1CCC[C@H]1C(=O)O [captopril]
development of induced proliferation [3, 5]: inhibited the development of proliferation
immunostaining intensities of immunoreactive angiotensin II [3, 5]: reduced these enhanced immunostaining intensities to control levels
formation of hypertrophied scars (hypertrophied scars): prevented the formation of hypertrophied scars

Compound: CCOC(=O)[C@H](CCc1ccccc1)N[C@@H](C)C(=O)N1CCC[C@H]1C(=O)O [enalapril]
keloid scar outcome (keloid scar; first patient (co-author), 10 mg once daily): rapidly improved
keloid scar outcome (keloid scar; person with diabetes, same low dose, after six months of therapy): marked improvement

Compound: CCC[C@H](N[C@@H](C)C(=O)N1[C@H](C(=O)O)C[C@@H]2CCCC[C@@H]21)C(=O)OCC [perindopril]
progression of experimental hepatic fibrosis [4]: ameliorate progression

Compound: O=C1NC(=O)C(c2ccccc2)(c2ccccc2)N1 [phenyloin]
proliferation of gingival fibroblast cells ([3]; guinea pig gingival fibroblast cells): induced proliferation

Compound: CCCCC(=O)N(Cc1ccc(-c2ccccc2-c2nnn[nH]2)cc1)[C@H](C(=O)O)C(C)C [valsartan]
progression of experimental hepatic fibrosis [4]: ameliorate progression
proliferation of fibroblasts derived from hypertrophic scars [1]: did not influence
effect on AT II-stimulated increase in DNA synthesis [1]: inhibited

Compound: Ang(1-7): angiotensin peptide Ang(1-7) (DRVYIHP; Angiotensin 1-7; UniProt P01019 25-31, looked up, fragment)
dermal healing following wounding (dermal healing): accelerate dermal healing
